This is an account of results in patent US20040235857A1, “Crystalline therapeutic agent” (Pfizer Inc, priority 2003, published 2004).

Data set [1] is described as follows: Dynamic vapour sorption (DVS) moisture sorption. The note with it: DVS isotherm, 30° C. The data set is classed as physicochemical. On the procedure:
The moisture sorption of the hydrated forms of sildenafil hemi-citrate was measured using a Surface Measurement Systems Ltd. Dynamic Vapour Sorption (DVS) Automated Water Sorption Analyser. A sample of the higher hydrate was initially equilibrated at about 45% RH and then analysed from 0 to 90% RH in relative humidity steps of 10% (exposure time of 6 hours per step). A second analysis was carried out from 35 to 65% RH in 5% RH steps to gain more detail in this humidity range (exposure time variable, weight stability of 0.0003%/minute gained for each steps). The temperature was maintained at 30° C. throughout the equilibration and analysis stages.
Sildenafil hemi-citrate is a hygroscopic material. The isotherm is represented in FIG. 5. At humidities greater than 55% RH the higher hydrate is present and from 30 to 40% RH the lower hydrate is present and at 0% RH the dehydrated form is present. Hysteresis occurs between the sorption and desorption isotherms in the 10 to 30 and 40 to 55% RH regions. This is classically seen for hydrates where kinetics associated with hydration and dehydration result in the events occurring at different humidities. There are slow kinetics associated with the rate of sorption (see FIG. 6) at 50% RH (illustrated by an equilibration time of 21 hours).

A short description of data set [2]: TGA of the higher hydrated form of sildenafil hemi-citrate. It counts as physicochemical. The note with it: temperatures in excess of 150° C.; attributed to degradation of the citrate ion. The method, then:
A TGA trace showing the relative % weight loss versus temperature for the solid form of the present invention is illustrated in FIG. 7. This trace was obtained using a Perkin-Elmer Pyris 1 TGA instrument. The sample, ideally about 5 to about 10 mg, was heated at 20° C./minute from ambient to about 300° C. with a purge gas of nitrogen.

On to `CCCc1nn(C)c2c(=O)[nH]c(-c3cc(S(=O)(=O)N4CCN(C)CC4)ccc3OCC)nc12.CCCc1nn(C)c2c(=O)[nH]c(-c3cc(S(=O)(=O)N4CCN(C)CC4)ccc3OCC)nc12.O=C(O)CC(O)(CC(=O)O)C(=O)O` [dehydrated hydrate], for which the “relative humidity at which the form is present” value in data set [1] amounted to 0 % RH. Besides, the second weight loss entry in data set [2] is reported as “about 12%”.
